US5824785A, “Dyes for ink jet printing” (Ilford Imaging Switzerland GmbH, priority 1995, dated 1998)
In brackets after ≈: the same amount, converted by molar mass.

Test: solubility of the dyes in water
Type: physicochemical
Settings: excess dye stirred 1 h at 50° C., cooled to 20° C., filtered, spectroscopic determination, read-out: Solubility (in g per 100 ml)
Protocol: The solubilities of the dyes according to the invention were determined as follows:
An excess of dye was heated at 50° C. in water with stirring for one hour. The mixture was then cooled down to 20° C. and filtered, and the dye content of the clear solution was determined spectroscopically.

With `CN(CCO)c1nc(NCCS(=O)(=O)O)nc(Nc2ccc(N=Nc3c(N)ccc4cc(S(=O)(=O)O)cc(O)c34)c(S(=O)(=O)O)c2)n1` [compound 100] as the molecule, how does the solubility read?
The solubility was 350 mg/mL (≈ 490 mM).

With `Nc1ccc2cc(S(=O)(=O)O)cc(O)c2c1N=Nc1ccc(Nc2nc(NCCS(=O)(=O)O)nc(N(CCO)CCO)n2)cc1S(=O)(=O)O` [compound 101] as the molecule, how does the solubility read?
Its solubility is 320 mg/mL (≈ 430 mM).

Which solubility does the source give for `Nc1ccc2cc(S(=O)(=O)O)cc(O)c2c1N=Nc1ccc(Nc2nc(NCCS(=O)(=O)O)nc(NCCS(=O)(=O)O)n2)cc1S(=O)(=O)O` [compound 102] here?
Its solubility is 260 mg/mL (≈ 340 mM).

With `COc1cc(N=Nc2c(N)ccc3cc(S(=O)(=O)O)cc(O)c23)c(C)cc1Nc1nc(NCCO)nc(Nc2cccc(S(=O)(=O)O)c2)n1` [dye 1, reference compound] as the molecule, how does the solubility read?
The solubility was 200 mg/mL (≈ 281 mM).

Which solubility does the source give for `CCCCCCNc1nc(NCCCCCC)nc(Nc2cc(S(=O)(=O)O)cc3cc(S(=O)(=O)O)c(N=Nc4ccccc4S(=O)(=O)O)c(O)c23)n1` [dye 5, reference compound] here?
Its solubility is 150 mg/mL (≈ 192 mM).
